Measured values reported in patent US20240246937A1 (MERCK SHARP & DOHME LLC, priority 2021, published 2024).

Target: recombinant IL4I1 (Homo sapiens (Human), UniProt Q96RQ9)
Test: IL4I1 Enzymatic Assay (Amplex Red/HRP coupled fluorescence detection of H2O2)
Format: biochemical
Conditions: 240 min; recombinant IL4I1, four-hour pre-incubation with compound
Outline: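 Recombinant human IL4I1 (1 nM final) pre-incubated 4 h with compound at ambient temperature in 50 mM Hepes pH 7.0, 0.005% Tween20. Started with 1 mM each Phe/Tyr/Trp plus Amplex Red/HRP; H2O2-derived resorufin fluorescence read after 120 min; EC50 from ten-point 1:3 titration, four-parameter fit.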

Sequence of recombinant IL4I1 (Q96RQ9 22-567): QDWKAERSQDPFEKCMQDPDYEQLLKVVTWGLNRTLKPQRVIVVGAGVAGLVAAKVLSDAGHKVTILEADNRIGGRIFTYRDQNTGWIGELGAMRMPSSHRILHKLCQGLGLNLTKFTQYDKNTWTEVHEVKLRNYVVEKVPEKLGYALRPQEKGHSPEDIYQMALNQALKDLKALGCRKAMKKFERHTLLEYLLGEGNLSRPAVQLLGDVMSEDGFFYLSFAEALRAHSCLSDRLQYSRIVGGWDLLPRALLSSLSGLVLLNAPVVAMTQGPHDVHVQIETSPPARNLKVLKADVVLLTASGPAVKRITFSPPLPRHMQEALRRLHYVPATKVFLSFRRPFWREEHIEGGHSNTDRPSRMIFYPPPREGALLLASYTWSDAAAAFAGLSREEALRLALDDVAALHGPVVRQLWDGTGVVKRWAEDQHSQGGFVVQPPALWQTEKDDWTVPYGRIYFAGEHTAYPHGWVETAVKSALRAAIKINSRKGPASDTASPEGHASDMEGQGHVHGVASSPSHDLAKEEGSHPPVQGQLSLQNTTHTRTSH

SMILES	EC50 [nM]
O=c1c(=O)n(C2CCC2)ccn1Cc1ccc(-n2ccnn2)nc1 [Example 410, 1-((6-(1H-1,2,3-triazol-1-yl)pyridin-3-yl)methyl)-4-cyclobutyl-1,4-dihydropyrazine-2,3-dione]	5
CC1CN(C2CCC2)C(=O)C(=O)N1Cc1nnc(-c2ccccc2)s1 (stereo not shown) [Example 357, 1-cyclobutyl-5-methyl-4-((5-phenyl-1,3,4-thiadiazol-2-yl)methyl)piperazine-2,3-dione]	32
O=c1c(=O)n(C2CCC2)ccn1Cc1nnc(-c2ccccn2)s1 [Example 370, 1-cyclobutyl-4-((5-(pyridin-2-yl)-1,3,4-thiadiazol-2-yl)methyl)-1,4-dihydropyrazine-2,3-dione]	20
O=C1C(=O)N(C2CCC2)CCN1Cc1nnc(-c2ccc(F)cc2)s1 [Example 29, 1-cyclobutyl-4-((5-(4-fluorophenyl)-1,3,4-thiadiazol-2-yl)methyl)piperazine-2,3-dione]	9
O=C1C(=O)N(C2CCCC2)CCN1Cc1ccc(-c2cnco2)nc1 [Example 18, 1-cyclopentyl-4-((6-(oxazol-5-yl)pyridin-3-yl)methyl)piperazine-2,3-dione]	41
O=C1C(=O)N(C2CCC2)CCN1Cc1cnc(-c2cccc(F)c2)s1 [Example 79, 1-cyclobutyl-4-((2-(3-fluorophenyl)thiazol-5-yl)methyl)piperazine-2,3-dione]	5
O=C1C(=O)N(C2CCC2)CCN1Cc1nnc(-c2cccc(F)c2)s1 [Example 27, 1-cyclobutyl-4-((5-(3-fluorophenyl)-1,3,4-thiadiazol-2-yl)methyl)piperazine-2,3-dione]	5
O=c1c(=O)n(C2CCC2)ccn1Cc1cc(-c2ccccc2)on1 [Example 56, 1-cyclobutyl-4-((5-phenylisoxazol-3-yl)methyl)-1,4-dihydropyrazine-2,3-dione]	1
O=C1C(=O)N(C2CCCC2)CCN1Cc1ccc(-c2cn[nH]c2)nn1 [Example 15, 1-((6-(1H-pyrazol-4-yl)pyridazin-3-yl)methyl)-4-cyclopentylpiperazine-2,3-dione]	44
O=C1C(=O)N(C2CCC2)CCN1Cc1ccc(-c2cncs2)nn1 [Example 395, 1-cyclobutyl-4-((6-(thiazol-5-yl)pyridazin-3-yl)methyl)piperazine-2,3-dione]	8
CC1(n2ccn(Cc3cn(-c4ccccn4)nn3)c(=O)c2=O)CC1 [Example 430, 1-(1-methylcyclopropyl)-4-((1-(pyridin-2-yl)-1H-1,2,3-triazol-4-yl)methyl)-1,4-dihydropyrazine-2,3-dione]	183
O=C1C(=O)N(C2CCCC2)CCN1Cc1ccc(-n2nccn2)nc1 [Example 336, 1-((6-(2H-1,2,3-triazol-2-yl)pyridin-3-yl)methyl)-4-cyclopentylpiperazine-2,3-dione]	20
[2H]C1(n2ccn(Cc3nnc(-c4ccccc4)s3)c(=O)c2=O)CCCC1 [Example 293, 1-(cyclopentyl-1-d)-4-((5-phenyl-1,3,4-thiadiazol-2-yl)methyl)-1,4-dihydropyrazine-2,3-dione]	11
CC1(N2CCN(Cc3cc(-c4cccc(F)c4)no3)C(=O)C2=O)CCC1 [Example 185, 1-((3-(3-fluorophenyl)isoxazol-5-yl)methyl)-4-(1-methylcyclobutyl)piperazine-2,3-dione]	8
O=c1c(=O)n(C23CC(F)(C2)C3)ccn1Cc1cn(-c2ccccn2)nn1 [Example 260, 1-(3-fluorobicyclo[1.1.1]pentan-1-yl)-4-((1-(pyridin-2-yl)-1H-1,2,3-triazol-4-yl)methyl)-1,4-dihydropyrazine-2,3-dione]	38
O=c1c(=O)n(C2CCC2)ccn1Cc1cc(-c2ccccc2)n[nH]1 [Example 168, 1-cyclobutyl-4-((3-phenyl-1H-pyrazol-5-yl)methyl)-1,4-dihydropyrazine-2,3-dione]	6
O=c1c(=O)n(C2CCCC2)ccn1Cc1cc(-c2ccccc2F)on1 [Example 61, 1-cyclopentyl-4-((5-(2-fluorophenyl)isoxazol-3-yl)methyl)-1,4-dihydropyrazine-2,3-dione]	5
O=C1C(=O)N([C@H]2C[C@H]3C[C@H]3C2)CCN1Cc1cnc(-c2ccccc2)c(F)c1 [Example 131, 1-((cis)-bicyclo[3.1.0]hexan-3-yl)-4-((5-fluoro-6-phenylpyridin-3-yl)methyl)piperazine-2,3-dione]	9
O=C1C(=O)N(C2CCC2)CCN1Cc1cc(-c2ccc(F)cc2)no1 [Example 150, 1-cyclobutyl-4-((3-(4-fluorophenyl)isoxazol-5-yl)methyl)piperazine-2,3-dione]	3
O=C1C(=O)N(C23CC(C2)C3)CCN1Cc1cn(-c2ccccc2)nn1 [Example 439, 1-(bicyclo[1.1.1]pentan-1-yl)-4-((1-phenyl-1H-1,2,3-triazol-4-yl)methyl)piperazine-2,3-dione]	9

SMILES	EC50 [nM]
O=C1C(=O)N(C23CC(C2)C3)CCN1Cc1nnc(-c2ccccc2)s1 [Example 121, 1-(bicyclo[1.1.1]pentan-1-yl)-4-((5-phenyl-1,3,4-thiadiazol-2-yl)methyl)piperazine-2,3-dione]	7
CC(c1cnc(-c2ccccc2)cn1)N1CCN(C2CCC2)C(=O)C1=O (stereo not shown) [Example 108, 1-cyclobutyl-4-(1-(5-phenylpyrazin-2-yl)ethyl)piperazine-2,3-dione]	20
O=C1C(=O)N(C2CCCC2)CCN1Cc1nnc(-c2nccs2)s1 [Example 363, 1-cyclopentyl-4-((5-(thiazol-2-yl)-1,3,4-thiadiazol-2-yl)methyl)piperazine-2,3-dione]	25
O=c1c(=O)n(C2CCCC2)ccn1Cc1ccc(-c2ccccc2)nn1 [Example 52, 1-cyclopentyl-4-((6-phenylpyridazin-3-yl)methyl)-1,4-dihydropyrazine-2,3-dione]	4
O=C1C(=O)N(C2CC(F)C2)CCN1Cc1nnc(-c2ccccc2)s1 (stereo not shown) [Example 290, 1-(3-fluorocyclobutyl)-4-((5-phenyl-1,3,4-thiadiazol-2-yl)methyl)piperazine-2,3-dione]	8
Cc1ccccc1-c1nnc(CN2CCN(C34CC(C3)C4)C(=O)C2=O)s1 [Example 84, 1-(bicyclo[1.1.1]pentan-1-yl)-4-((5-(o-tolyl)-1,3,4-thiadiazol-2-yl)methyl)piperazine-2,3-dione]	13
O=c1c(=O)n(C23CC(C2)C3)ccn1Cc1cc(-c2ccccn2)no1 [Example 172, 1-(bicyclo[1.1.1]pentan-1-yl)-4-((3-(pyridin-2-yl)isoxazol-5-yl)methyl)-1,4-dihydropyrazine-2,3-dione]	7
O=c1c(=O)n(C2CCC2)ccn1Cc1cnn(-c2ccccc2)c1 [Example 160, 1-cyclobutyl-4-((1-phenyl-1H-pyrazol-4-yl)methyl)-1,4-dihydropyrazine-2,3-dione]	5
O=c1c(=O)n(C23CC(C2)C3)ccn1Cc1ccc(-n2ccnn2)cn1 [Example 388, 1-((5-(1H-1,2,3-triazol-1-yl)pyridin-2-yl)methyl)-4-(bicyclo[1.1.1]pentan-1-yl)-1,4-dihydropyrazine-2,3-dione]	23
O=C1C(=O)N(C2CCC2)CCN1Cc1ccc(-c2ccccc2)nn1 [Example 12, 1-cyclobutyl-4-((6-phenylpyridazin-3-yl)methyl)piperazine-2,3-dione]	8
O=c1c(=O)n(C23CC(C2)C3)ccn1Cc1nnc(-c2ccc(F)cc2)s1 [Example 36, 1-(bicyclo[1.1.1]pentan-1-yl)-4-((5-(4-fluorophenyl)-1,3,4-thiadiazol-2-yl)methyl)-1,4-dihydropyrazine-2,3-dione]	6
O=C1C(=O)N(C2CCCC2)CCN1Cc1ncc(-c2ccccn2)cn1 [Example 342, 1-cyclopentyl-4-((5-(pyridin-2-yl)pyrimidin-2-yl)methyl)piperazine-2,3-dione]	69
O=C1C(=O)N([C@H]2C[C@H]3C[C@H]3C2)CCN1Cc1ccc(-c2nccs2)nn1 [Example 374, 1-((cis)-bicyclo[3.1.0]hexan-3-yl)-4-((6-(thiazol-2-yl)pyridazin-3-yl)methyl)piperazine-2,3-dione]	8
COCC(C)(C)N1CCN(Cc2nnc(-c3ccccc3)s2)C(=O)C1=O [Example 299, 1-(1-methoxy-2-methylpropan-2-yl)-4-((5-phenyl-1,3,4-thiadiazol-2-yl)methyl)piperazine-2,3-dione]	56
CC1(n2ccn(Cc3ccc(-c4nccs4)nn3)c(=O)c2=O)CC1 [Example 377, 1-(1-methylcyclopropyl)-4-((6-(thiazol-2-yl)pyridazin-3-yl)methyl)-1,4-dihydropyrazine-2,3-dione]	71
O=c1c(=O)n([C@H]2C[C@H]3C[C@H]3C2)ccn1Cc1ccc(-c2ccccc2F)nn1 [Example 50, 1-((cis)-bicyclo[3.1.0]hexan-3-yl)-4-((6-(2-fluorophenyl)pyridazin-3-yl)methyl)-1,4-dihydropyrazine-2,3-dione]	4
N#Cc1ccccc1-c1cc(CN2CCN(C34CC(C3)C4)C(=O)C2=O)no1 [Example 424, 2-(3-((4-(bicyclo[1.1.1]pentan-1-yl)-2,3-dioxopiperazin-1-yl)methyl)isoxazol-5-yl)benzonitrile]	19
O=c1c(=O)n(C2CCC2)ccn1Cc1ccc(-n2nccn2)nc1 [Example 409, 1-((6-(2H-1,2,3-triazol-2-yl)pyridin-3-yl)methyl)-4-cyclobutyl-1,4-dihydropyrazine-2,3-dione]	9
O=C1C(=O)N(C2CC3CC2C3)CCN1Cc1ccc(-c2ccccc2F)nn1 (stereo not shown) [Example 184, 1-(bicyclo[2.1.1]hexan-2-yl)-4-((6-(2-fluorophenyl)pyridazin-3-yl)methyl)piperazine-2,3-dione]	25
O=c1c(=O)n(C23CC(C2)C3)ccn1Cc1cc(-c2ccc(F)cc2)on1 [Example 419, 1-(bicyclo[1.1.1]pentan-1-yl)-4-((5-(4-fluorophenyl)isoxazol-3-yl)methyl)-1,4-dihydropyrazine-2,3-dione]	2
